A short description of data set [1]: Metabolite extraction and analysis: parent PCB52 and metabolite fractions in tissues and urine after intratracheal [14C]-PCB52. The format is in vivo, Sprague–Dawley rats. The following applies: for PCB52 share of radioactivity over time / unmetabolized PCB52 share of radioactivity over time: over the 96 h period; for parent PCB52 share of radioactivity: maternal serum. From the text: A complex mixture of confirmed and putative metabolites of PCBs has been reported in the literature. To quantify the metabolites of PCB52 in maternal serum, the developing fetus, liver, brain, lung, and adipose tissue in this study, we employed a series of liquid–liquid extractions with solvents of increasing polarity to separate phenolic, methyl sulfones, and glucuronate/sulfated metabolites. , Recovery experiments used available standards including parent PCB52, 4-OH-PCB52, 3-MeSO2-PCB52, and 4-MeSO2-PCB52 metabolites in biological samples. The levels of the parent compound PCB52 and its extractable metabolites in the samples were determined using a validated liquid scintillation counting method coupled with gas chromatography-electron capture detection (GC-ECD), following our previous protocol. , Individual extractable metabolite was separated using a series of liquid–liquid extractions, employing a graded array of solvents with incrementing polarity to facilitate the partitioning of the analytes according to their inherent lipophilic characteristics (Figure S4). Subsequently, individual fractions were classified into respective categories, including the parent PCB moiety, hydroxylated PCBs (OH-PCBs), methyl sulfonyl PCBs (MeSO2–PCBs), conjugated metabolites, and unextractable components.
Tissue samples (200–400 mg wet weight) were prepared for analysis through a two-step homogenization using 2 mL of hexane/acetone solvent (50% vol/vol). The resultant solution was centrifuged, and then the pellet underwent two successive extractions with 1.5 mL of dichloromethane (DCM), chloroform/methanol (50:50 vol/vol), methanol/water (50:50 vol/vol), and water, respectively. The supernatant from the DCM extraction contained hydroxylated metabolites, whereas the top fractions from the methanol/water extraction had conjugated PCB metabolites. The resultant supernatant from the hexane/acetone extraction was rinsed with Milli-Q water, then extracted with a 0.5 M potassium hydroxide (KOH) solution in 50% ethanol, and triple rinsed with 400 μL of hexane. The hydrophobic fraction was further purified by rinsing with 1 M hydrochloric acid (400 μL). Simultaneously, a plausible MeSO2–PCBs fraction was extracted with 500 μL of anhydrous DMSO, followed by triple hexane rinses (3 × 400 μL). The residual hydrophobic phase was quantified as native PCB52. The quantification of cold PCB52, OH-PCBs (as MeO-PCB derivatives), and MeSO2-PCBs standards in spiked samples was initially performed on a gas chromatograph (Agilent 6890N) equipped with a 63Ni μ-ECD detector and SLB-5MS capillary column (60 m × 0.25 mm I.D., 0.25 μm film thickness; Supelco, St Louis, MO). Subsequently, individual separated fractionation from [^14C]-PCB52-exposed tissue samples was transferred to a prepared scintillation vial, followed by the addition of 10 mL of cocktail solution and analysis by scintillation counter. Any quantifiable radioactivity in the residual pellet was treated as unextractable compounds.

Data set [2] in a line: Literature half-life of PCB52 following intravenous administration in male rats (Pu et al.). The conditions noted are these: rat, in vivo, concentration–time data of Pu et al., read-out: half-life when Pu et al. data are fitted to a two-compartmental PK model.
A short description of data set [3]: Pulmonary uptake, exhalation and excretion (mass balance) after intratracheal [14C]-PCB52. The format is in vivo, Sprague–Dawley rats. As for the experimental part:
Female Sprague–Dawley rats (8 weeks old) weighing 237–269.7 g (mean = 247.5 g) (Envigo RMS, LLC, Indianapolis, IN) were used for this study. All animal experiments were performed following the protocols evaluated and approved by the University of Iowa Institutional Animal Care and Use Committee (approval number 3091097). After arrival, the animals were acclimated for 7 days. The animals were housed in a light and temperature-controlled environment with ad libitum access to food and water during quarantine and throughout the study. Timed pregnancy was achieved by harem mating. , Briefly, one male and two female rats were placed together in the evening and checked for vaginal plug the following day. If vaginal plug was present, the male was removed from the breeding cage, and the gestation day 0 (GD 0), 0-day post coitum was assigned. Pregnancies were confirmed by ultrasound scan at GD 9. The dams were exposed at GD 11 (±1 day) to capture the period of early organogenesis and hormonal function, which falls within week 3 of human embryonic development. ,− On the day of the experiment, pregnant rats were intratracheally administered an average of 40 μg (range, 35–45 μg) of [^14C]-PCB52 in 100 μL of exposure solution. Although the dose used in this study exceeded the tolerable daily intake (TDI) of PCBs for healthy individuals, which is 1.6 μg per day for an individual weighing 80 kg, the use of higher acute doses has been established in toxicological studies intended for risk assessment. The intratracheal instillation method was chosen for administering [^14C]-PCB52 to represent inhalation exposures, capture exhaled concentration, and efficiently utilize the limited availability of the cost-intensive radiolabeled PCB52. , Although inhalation exposure would better represent real-world exposures to airborne LC-PCBs, it would not allow us to accurately measure the amount of PCB52 exhaled into the air after exposure and is experimentally infeasible. […] All intratracheal instillations were done under light anesthesia, achieved using a 4% isoflurane concentration via a Fortec vaporizer (Cyprane, Keighley, UK). The animals recovered from anesthesia within 1 min. Subsequently, the animals were housed within a cylindrical glass chamber measuring 2 L in volume, equipped with glass drainage mechanisms to facilitate urine collection and a metallic screen to segregate urine from feces (as in Figure S1). Air was drawn from the chamber at 6.0 L/min through a cartridge containing the XAD-2 polymeric resin to capture any exhaled [^14C]-PCB52. For periods longer than 24 h postexposure, exposed dams were placed in a metabolic cage, which was fitted with a cartridge containing XAD-2 to capture exhaled [^14C]-PCB52 as in other end points.
Maternal blood, urine, and feces samples were collected immediately before and at 0.21, 1.67, 12, 24, 48, and 96 h after lung dosing. The exposed dams were euthanized using 4% isoflurane, followed by cervical dislocation and exsanguination via a cardiac puncture. Euthanasia was consistently performed during the light cycle. Dams’ fur was wiped and analyzed for radioactivity. Using the retro-orbital blood collection method, 0.5–1.5 mL ([…] of an exposed pregnant rat’s body weight) of blood sample was collected from each of the dams until the individual dams were necropsied for whole-body tissue harvesting. At the end of the exposure period, the chamber’s interior walls were rinsed separately with water and acetone/hexane (25 – 45 mL) and wiped to measure residues. From the collected whole blood samples, 100 μL were aliquoted into three vials each, and the remaining blood was allowed to clot at room temperature before being centrifuged to yield serum. The placentas, developing fetuses, and whole-body tissue samples were harvested immediately before exposure and at 0.21, 1.67, 12, 24, and 96 h postexposure. […]

Several values for one entry are separate records, joined by “and”; a condition that tells them apart may be missing. Equal values may be shown once.

As for `Clc1ccc(Cl)c(-c2cc(Cl)ccc2Cl)c1` [PCB52, 2,2′,5,5′-Tetrachlorobiphenyl], the “PCB52 share of radioactivity over time” value in data set [1] (adipose tissue) is 66.0 to 96.8%; in data set [1] (fetal tissues), 54.1 to 27.7%; in data set [1] (placenta) it was 67.8 to 28.6%. For the same molecule, the results for the “unmetabolized PCB52 share of radioactivity over time” value in data set [1] (brain) and in data set [1] (liver) were 74.4 to 60.2% and 64.0 to 37.3%, respectively. The “parent PCB52 share of radioactivity” value came out at 69.4% in data set [1] (0.21 h) and 6.8% in data set [1] (96 h). The “parent compound in urine” value in data set [1] (urine) is listed as “no detectable parent compound”. For the same molecule, the half-life in data set [2] was 36 to 48 h. The molecule further displayed a dose retained in data set [3] (after 96 h) of 41.1%. Moreover, the elimination through feces in data set [3] (at 96 h postexposure) was 42.5%. The elimination through urine in data set [3] (at 96 h postexposure) is given as 14.5%. Moreover, the total elimination in data set [3] (at 96 h postexposure) is reported as 58.9%. In data set [3] (by 96 h postexposure), the “exhaled proportion of the administered dose” value is listed as 1.33 ± 0.51%. Moreover, the “average lung uptake (administered dose distributed to the systemic circulation)” value in data set [3] (intratracheal administration) is 99.4 ± 0.5% and 99.40 ± 0.51%.

For the origin of these results see article PMC12794188, “Maternal–Fetal Transfer and Toxicokinetics of 2,2′,5,5′-Tetrachlorobiphenyl, [^14C]-PCB52, Following Intratracheal Administration” (Chemical Research in Toxicology, 2025).
